Here are results for nine compounds from ChEMBL document CHEMBL4477262, “Non-canonical modulators of nuclear receptors” (Bioorg Med Chem Lett, 2016).

One assay has as its target Androgen receptor/PELP1 (Homo sapiens, UniProt P10275+Q8IZL8). Description: Inhibition of full length AR/PELP1 (unknown origin) interaction expressed in human LNCaP cells preincubated for 2 hrs followed by DHT addition measured after 24 hrs by Western blot analysis. The format is cell-based. (In general: A western blot detects proteins with antibodies after separation by electrophoresis.)

Assay [1] addresses T1, Estrogen receptor (Homo sapiens, UniProt P03372).
T1 sequence (P03372 whole entry): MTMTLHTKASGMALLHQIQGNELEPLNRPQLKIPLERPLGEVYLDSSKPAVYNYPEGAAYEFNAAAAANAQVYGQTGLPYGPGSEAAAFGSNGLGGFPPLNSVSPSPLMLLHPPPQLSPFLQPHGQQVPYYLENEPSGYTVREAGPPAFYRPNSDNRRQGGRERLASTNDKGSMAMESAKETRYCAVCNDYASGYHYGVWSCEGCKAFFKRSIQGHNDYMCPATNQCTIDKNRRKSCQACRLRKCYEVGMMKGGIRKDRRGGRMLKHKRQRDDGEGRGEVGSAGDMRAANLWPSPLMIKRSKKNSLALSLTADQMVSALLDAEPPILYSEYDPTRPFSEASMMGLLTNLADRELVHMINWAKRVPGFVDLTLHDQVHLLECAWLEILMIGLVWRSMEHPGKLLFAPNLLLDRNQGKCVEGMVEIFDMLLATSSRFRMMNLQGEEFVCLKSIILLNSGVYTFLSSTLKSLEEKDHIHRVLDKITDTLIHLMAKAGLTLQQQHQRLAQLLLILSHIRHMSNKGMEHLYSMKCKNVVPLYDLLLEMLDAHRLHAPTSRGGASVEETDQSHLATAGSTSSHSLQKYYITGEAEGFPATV
Description: Inhibition of full length human ERalpha expressed in human HEC1 cells in presence of estradiol by luciferase reporter gene assay. The format is cell-based. (In general: Reporter assays use an easily measured gene product as a stand-in for the process of interest.)

For assay [2], the target named is T2, Retinoic acid receptor RXR-alpha (Homo sapiens, UniProt P19793).
T2 sequence (P19793 whole entry): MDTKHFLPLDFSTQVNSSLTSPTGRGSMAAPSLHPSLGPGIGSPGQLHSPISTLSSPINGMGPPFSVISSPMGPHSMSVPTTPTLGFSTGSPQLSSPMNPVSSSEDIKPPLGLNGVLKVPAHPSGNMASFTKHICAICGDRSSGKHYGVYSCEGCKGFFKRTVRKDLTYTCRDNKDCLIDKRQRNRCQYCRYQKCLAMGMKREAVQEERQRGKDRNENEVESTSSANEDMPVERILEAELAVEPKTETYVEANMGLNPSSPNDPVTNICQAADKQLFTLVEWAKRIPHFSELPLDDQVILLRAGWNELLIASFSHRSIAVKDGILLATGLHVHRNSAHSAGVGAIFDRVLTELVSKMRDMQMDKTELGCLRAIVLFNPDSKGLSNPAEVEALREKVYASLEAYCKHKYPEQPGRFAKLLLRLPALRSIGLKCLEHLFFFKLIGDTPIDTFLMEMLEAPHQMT
Description: Binding affinity to human GST-tagged RXRalpha ligand binding domain (223 to 462 residues) expressed in Escherichia coli BL21 assessed as inhibition of 9-cis-RA-induced coactivator recruitment by TR-FRET assay

The target in assay [3] is T1, Estrogen receptor. Description: Displacement of fluorescein-labeled PGC1alpha peptide from human GST-tagged ERalpha LBD after 2 hrs in presence of estradiol-beta by TR-FRET assay. (TR-FRET usually uses a lanthanide donor and a delayed reading to cut background.)
The target in assay [4] is T1, Estrogen receptor. Description: Displacement of europium-labeled SRC1 peptide from full length human recombinant ERalpha expressed in baculovirus expression system after 1.5 hrs in presence of estradiol-beta by TR-FRET assay.
The next assay addresses T3, Androgen receptor (Homo sapiens, UniProt P10275).
T3 sequence (P10275 whole entry): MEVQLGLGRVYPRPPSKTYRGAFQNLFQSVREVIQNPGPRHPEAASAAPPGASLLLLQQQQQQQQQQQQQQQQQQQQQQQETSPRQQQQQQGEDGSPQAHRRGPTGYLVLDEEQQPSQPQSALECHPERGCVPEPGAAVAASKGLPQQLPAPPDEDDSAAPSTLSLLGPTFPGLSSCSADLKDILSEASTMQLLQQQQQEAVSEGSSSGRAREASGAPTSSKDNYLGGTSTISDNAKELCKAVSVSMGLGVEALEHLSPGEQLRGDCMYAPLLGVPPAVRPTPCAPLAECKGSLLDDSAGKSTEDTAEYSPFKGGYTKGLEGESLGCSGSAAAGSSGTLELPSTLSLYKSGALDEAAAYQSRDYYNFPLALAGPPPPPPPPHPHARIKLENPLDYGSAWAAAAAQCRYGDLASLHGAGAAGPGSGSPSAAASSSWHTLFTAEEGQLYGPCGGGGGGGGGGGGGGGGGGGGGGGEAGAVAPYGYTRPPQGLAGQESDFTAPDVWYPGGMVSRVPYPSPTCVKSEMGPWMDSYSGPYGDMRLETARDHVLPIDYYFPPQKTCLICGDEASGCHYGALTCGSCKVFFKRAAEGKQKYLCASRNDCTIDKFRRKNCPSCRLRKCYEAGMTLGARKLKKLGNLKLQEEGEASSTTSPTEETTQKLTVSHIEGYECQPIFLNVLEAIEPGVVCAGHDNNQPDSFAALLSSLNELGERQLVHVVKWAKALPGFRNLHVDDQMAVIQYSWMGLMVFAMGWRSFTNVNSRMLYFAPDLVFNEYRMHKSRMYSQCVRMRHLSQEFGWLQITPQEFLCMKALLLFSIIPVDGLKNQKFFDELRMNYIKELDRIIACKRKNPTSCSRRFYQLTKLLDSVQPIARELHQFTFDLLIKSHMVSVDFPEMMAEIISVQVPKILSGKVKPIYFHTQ
Description: Inhibition of AR transcriptional activity in human ARR2PB-eGFP expressing LNCaP cells after 3 days by fluorescence assay. Format: cell-based.

The target of assay [5] is T4, Peroxisome proliferator-activated receptor gamma (Homo sapiens, UniProt P37231).
T4 sequence (P37231 whole entry): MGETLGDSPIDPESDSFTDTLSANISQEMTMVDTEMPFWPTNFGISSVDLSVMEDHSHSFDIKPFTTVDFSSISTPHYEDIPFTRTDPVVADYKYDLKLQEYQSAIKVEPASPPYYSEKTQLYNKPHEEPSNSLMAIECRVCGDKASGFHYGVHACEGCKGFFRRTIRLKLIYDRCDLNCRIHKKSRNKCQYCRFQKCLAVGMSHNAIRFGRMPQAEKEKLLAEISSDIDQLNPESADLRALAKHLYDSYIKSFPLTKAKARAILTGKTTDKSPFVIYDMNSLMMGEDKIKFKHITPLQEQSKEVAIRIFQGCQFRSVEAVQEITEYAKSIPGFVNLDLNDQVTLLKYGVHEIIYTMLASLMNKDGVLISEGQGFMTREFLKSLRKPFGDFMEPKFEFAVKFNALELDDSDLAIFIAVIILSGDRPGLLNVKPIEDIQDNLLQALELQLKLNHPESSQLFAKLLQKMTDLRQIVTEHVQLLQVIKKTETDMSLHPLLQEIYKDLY
In words: Displacement of 5-FAM-labeled NBM131 from human PPARgamma ligand binding domain expressed in human HepG2 cells by fluorescence polarization assay.

Assay [6] addresses T5, Peroxisome proliferator-activated receptor alpha (Homo sapiens, UniProt Q07869).
T5 sequence (Q07869 whole entry): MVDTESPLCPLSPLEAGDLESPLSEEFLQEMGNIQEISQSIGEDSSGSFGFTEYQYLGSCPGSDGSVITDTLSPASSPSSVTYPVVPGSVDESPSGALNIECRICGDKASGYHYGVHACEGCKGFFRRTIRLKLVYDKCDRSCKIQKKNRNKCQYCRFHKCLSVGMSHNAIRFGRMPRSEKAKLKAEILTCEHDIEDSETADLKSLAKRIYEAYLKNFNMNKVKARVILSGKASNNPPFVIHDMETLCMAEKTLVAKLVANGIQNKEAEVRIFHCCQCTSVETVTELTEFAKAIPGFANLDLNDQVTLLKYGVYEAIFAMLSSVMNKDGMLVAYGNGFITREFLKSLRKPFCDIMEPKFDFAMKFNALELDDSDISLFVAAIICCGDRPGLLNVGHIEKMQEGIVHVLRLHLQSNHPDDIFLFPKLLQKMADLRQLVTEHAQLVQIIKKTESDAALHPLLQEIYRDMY
In words: Displacement of 5-FAM-labeled NBM131 from human PPARalpha ligand binding domain expressed in human HepG2 cells by fluorescence polarization assay.

Peptide text beside a SMILES is read from it.

Androgen receptor/PELP1, sequence (Q8IZL8 whole entry, one chain of several): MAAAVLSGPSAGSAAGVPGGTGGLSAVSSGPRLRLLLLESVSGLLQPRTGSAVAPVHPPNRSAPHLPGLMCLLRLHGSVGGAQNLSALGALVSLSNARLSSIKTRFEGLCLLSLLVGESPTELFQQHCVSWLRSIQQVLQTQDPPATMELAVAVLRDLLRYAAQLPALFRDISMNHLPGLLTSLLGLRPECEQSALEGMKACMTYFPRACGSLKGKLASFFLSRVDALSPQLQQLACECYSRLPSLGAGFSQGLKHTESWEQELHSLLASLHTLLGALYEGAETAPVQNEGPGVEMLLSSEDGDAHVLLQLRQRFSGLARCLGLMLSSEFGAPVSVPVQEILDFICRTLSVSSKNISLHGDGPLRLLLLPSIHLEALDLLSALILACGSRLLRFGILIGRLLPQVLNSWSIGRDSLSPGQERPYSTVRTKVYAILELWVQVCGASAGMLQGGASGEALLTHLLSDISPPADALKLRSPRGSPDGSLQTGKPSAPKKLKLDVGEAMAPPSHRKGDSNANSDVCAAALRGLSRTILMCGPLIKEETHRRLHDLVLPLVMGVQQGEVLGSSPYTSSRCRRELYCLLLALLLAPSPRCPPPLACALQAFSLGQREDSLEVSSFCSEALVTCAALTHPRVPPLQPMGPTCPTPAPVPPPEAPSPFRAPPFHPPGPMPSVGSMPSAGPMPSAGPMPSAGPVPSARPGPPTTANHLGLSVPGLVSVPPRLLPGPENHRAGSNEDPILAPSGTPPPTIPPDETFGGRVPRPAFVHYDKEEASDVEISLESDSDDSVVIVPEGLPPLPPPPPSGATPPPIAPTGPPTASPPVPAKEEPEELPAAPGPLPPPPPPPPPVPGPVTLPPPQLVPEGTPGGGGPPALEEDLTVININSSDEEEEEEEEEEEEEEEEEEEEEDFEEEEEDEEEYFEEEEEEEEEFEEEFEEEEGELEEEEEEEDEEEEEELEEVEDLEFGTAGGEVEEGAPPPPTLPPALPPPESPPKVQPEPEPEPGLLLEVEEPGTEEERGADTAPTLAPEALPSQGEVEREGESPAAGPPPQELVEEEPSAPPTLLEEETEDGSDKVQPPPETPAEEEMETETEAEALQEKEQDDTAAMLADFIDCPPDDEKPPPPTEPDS

By IC50 is commonly meant the concentration at which inhibition is half-maximal. `COC(=O)c1ccc(NC(=O)c2ccc([N+](=O)[O-])c(OCC(C)C)c2)c(OCC(C)C)c1` returned an IC50 against Androgen receptor/PELP1 of 0.04 µM.
With `O=C(CCCCn1c(=S)[nH]c2ccccc2c1=O)N1CCN(c2ccc(C(F)(F)F)cc2)CC1`, at Estrogen receptor [1], the half-maximal inhibitory concentration (IC50) came out at 2.3 µM.
As to `CC1=C(CCc2nnn[nH]2)c2cc(F)ccc2/C1=C\c1ccc(C(C)C)cc1`, in assay [2], the IC50 worked out at 10 µM.
`O=C1NN(c2ccc(Cl)c(Cl)c2)C(=O)C1Cc1c[nH]c2ccccc12` (stereo not given): the IC50 at Estrogen receptor [3] was 2.46 µM.
As a reminder, the Ki is the dissociation constant of the complex between target and ligand, obtained from inhibition or displacement. For `CC[C@H](C)[C@@H]1NC(=O)[C@H](NC(=O)[C@@H](N)CCCCN)CSSC[C@@H](C(=O)N[C@@H](CCCNC(=N)N)C(=O)N[C@@H](CC(C)C)C(=O)N[C@@H](CC(C)C)C(=O)N[C@@H](CCC(N)=O)C(=O)O)NC(=O)[C@H](CC(C)C)NC1=O`, the Ki on Estrogen receptor [4] was found to be 0.025 µM.
Compound `c1ccc2c(c1)CC(c1c[nH]c3ccccc13)N2` (stereo not given) yielded an IC50 against Androgen receptor of 0.31 µM.
As to `CCOc1cc(Br)cc(CNNC(=O)c2ccc3c(c2)OCCO3)c1O`, at Estrogen receptor [3], the IC50 was found to be 2.98 µM.
On to `CC(C)NC(=O)CSc1nc2ccc(NC(=O)CSc3cccc(Cl)c3)cc2s1`, for which the IC50 on Estrogen receptor [1] is 6.3 µM.
Usually Kd stands for the free concentration of one partner at which half of the binding sites on the other are occupied at equilibrium, for simple one-to-one binding. High values mean weaker binding, low ones tighter binding. As for `CC(C)C[C@H](NC(=O)[C@H](Cc1ccccc1)NC(=O)[C@H](CCC(N)=O)NC(=O)[C@@H](NC(=O)[C@H](CC(C)C)NC(=O)[C@H](CC(C)C)NC(=O)[C@@H]1CCCN1C(=O)[C@H](Cc1cnc[nH]1)NC(=O)[C@H](CC(C)C)NC(=O)[C@H](CCC(N)=O)NC(=O)[C@@H](NC(=O)[C@@H]1CCCN1C(=O)[C@@H]1CCCN1C(=O)[C@@H](NC(=O)[C@@H](NC(=O)[C@H](C)N)[C@@H](C)O)[C@@H](C)O)[C@@H](C)O)[C@@H](C)O)C(=O)N[C@@H](CCCNC(=N)N)C(=O)N[C@H](C(=O)N[C@@H](CC(=O)O)C(=O)O)[C@@H](C)O` (H-ATTPPTQLHPLLTQFLRTD-OH), the Kd in assay [5] and in assay [6] was 0.08 µM in each case.
